Measured values from ChEMBL document CHEMBL1201862, “PubChem BioAssay data set” (2004).
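48-hour exposure; five concentrations; linearly interpolated endpoints. GI50 is the concentration that inhibits growth by half.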 Calls of active or inactive are those of the source. No stated cut-off is given here; in the data, active = GI50 up to about 1.1 µM and inactive = higher.

Tests used:
Test in all cases: NCI anticancer screen, dose series, 48 h
[1] = tested on: A498
[2] = tested on: COLO 205
[3] = tested on: EKVX
[4] = tested on: HL-60
[5] = tested on: HOP-92
[6] = tested on: Hs-578T
[7] = tested on: LOX IMVI
[8] = tested on: OVCAR-3
[9] = tested on: OVCAR-5
[10] = tested on: RPMI-8226
[11] = tested on: RXF 393
[12] = tested on: SF-268
[13] = tested on: SF-539
[14] = tested on: SK-MEL-2
[15] = tested on: SK-OV-3
[16] = tested on: SN12C
[17] = tested on: TK-10
[18] = tested on: UO-31
[19] = tested on: Malme-3M

Row | SMILES | GI50 [1] | GI50 [2] | GI50 [3] | GI50 [4] | GI50 [5] | GI50 [6] | GI50 [7] | GI50 [8] | GI50 [9] | GI50 [10] | GI50 [11] | GI50 [12] | GI50 [13] | GI50 [14] | GI50 [15] | GI50 [16] | GI50 [17] | GI50 [18] | GI50 [19]
1 | CCCC(=O)NC1=C(Cl)C(=O)c2ccccc2C1=O | 13.3 µM (inactive) | 1.89 µM (inactive) | 3.72 µM (inactive) | 0.145 µM (active) | 1.82 µM (inactive) | 5.25 µM (inactive) | 2.51 µM (inactive) | 2.29 µM (inactive) | 4.59 µM (inactive) | 1.48 µM (inactive) | 1.15 µM (inactive) | 6.92 µM (inactive) | 2.45 µM (inactive) | 2.39 µM (inactive) | 8.67 µM (inactive) | 10.8 µM (inactive) | 4.89 µM (inactive) | 2.96 µM (inactive) | 
2 | CCN(CC)CC1CCCCN1CC(=O)N1c2ccccc2NC(=O)CC1C (stereo not drawn) | > 100 µM (inactive) | > 100 µM (inactive) | > 100 µM (inactive) | > 100 µM (inactive) | > 100 µM (inactive) | > 100 µM (inactive) | > 100 µM (inactive) | > 100 µM (inactive) | > 100 µM (inactive) | > 100 µM (inactive) | > 100 µM (inactive) | > 100 µM (inactive) | > 100 µM (inactive) | > 100 µM (inactive) | > 100 µM (inactive) | > 100 µM (inactive) | > 100 µM (inactive) | > 100 µM (inactive) | > 100 µM (inactive)
3 | CC1=C2C(=O)c3ccccc3C(=O)[C@H]2C[C@@H](N2CCCCCC2=O)O1 | > 100 µM (inactive) | 17.3 µM (inactive) | 23.1 µM (inactive) | 19 µM (inactive) | 19.4 µM (inactive) | 30.5 µM (inactive) | 17.3 µM (inactive) | 18 µM (inactive) | 16.7 µM (inactive) | 14.6 µM (inactive) | 27 µM (inactive) | 20.9 µM (inactive) | 19 µM (inactive) | 23.1 µM (inactive) | 27.5 µM (inactive) | 17.7 µM (inactive) | 23 µM (inactive) | 17 µM (inactive) | 12.9 µM (inactive)
4 | c1ccc(C2=NC3OC2c2ccccc23)cc1 (stereo not drawn) | > 10 µM (inactive) | > 10 µM (inactive) | > 10 µM (inactive) | > 10 µM (inactive) | > 10 µM (inactive) | > 10 µM (inactive) | > 10 µM (inactive) | > 10 µM (inactive) | > 10 µM (inactive) | > 10 µM (inactive) | > 10 µM (inactive) | > 10 µM (inactive) | > 10 µM (inactive) | > 10 µM (inactive) | > 10 µM (inactive) | > 10 µM (inactive) | > 10 µM (inactive) |  | > 10 µM (inactive)
5 | CC(C)=CCc1[nH]c2ccccc2c1C1=C(O)C(=O)C(c2c(CC=C(C)C)[nH]c3ccccc23)=C(O)C1=O | 1.21 µM (inactive) | 1.63 µM (inactive) | 2.19 µM (inactive) | 2.19 µM (inactive) | 1.12 µM (inactive) | 1.04 µM (active) | 1.43 µM (inactive) | 1.48 µM (inactive) | 2.89 µM (inactive) | 2.3 µM (inactive) | 1.75 µM (inactive) | 0.409 µM (active) |  | 1.64 µM (inactive) | 2.11 µM (inactive) | 1.26 µM (inactive) |  | 1.49 µM (inactive) | 0.628 µM (active)
6 | Nc1ccc(C(=O)N2CCC[C@H]2CO)c(N)c1 | > 100 µM (inactive) | > 100 µM (inactive) | > 100 µM (inactive) | > 100 µM (inactive) | > 100 µM (inactive) | > 100 µM (inactive) | > 100 µM (inactive) | > 100 µM (inactive) | > 100 µM (inactive) | > 100 µM (inactive) | > 100 µM (inactive) | > 100 µM (inactive) | > 100 µM (inactive) | > 100 µM (inactive) | > 100 µM (inactive) | > 100 µM (inactive) | > 100 µM (inactive) | > 100 µM (inactive) | 
7 | S=C(N/N=C\C=N/NC(=S)N1CCCCC1)N1CCCCC1 | 1.34 µM (inactive) | 0.592 µM (active) | 0.515 µM (active) |  | 3.23 µM (inactive) | 0.879 µM (active) | 0.32 µM (active) | 0.251 µM (active) | > 29.3 µM (inactive) | 0.433 µM (active) | 0.296 µM (active) | 0.231 µM (active) | 0.435 µM (active) |  | 0.692 µM (active) | 0.723 µM (active) | 1.61 µM (inactive) | 0.195 µM (active) | 0.321 µM (active)
8 | Cn1nnnc1SC(F)(F)c1nc2ccccc2o1 | > 100 µM (inactive) | > 100 µM (inactive) |  |  | > 100 µM (inactive) | > 100 µM (inactive) |  | > 100 µM (inactive) | > 100 µM (inactive) | > 100 µM (inactive) | > 100 µM (inactive) | > 100 µM (inactive) | > 100 µM (inactive) | > 100 µM (inactive) | > 100 µM (inactive) | > 100 µM (inactive) | > 100 µM (inactive) | > 100 µM (inactive) | > 100 µM (inactive)
9 | Cc1c2ccncc2c(C)c2c1sc1ccccc12 | 8.47 µM (inactive) | 12.3 µM (inactive) | 4.75 µM (inactive) | 2.9 µM (inactive) | 12 µM (inactive) | 13.6 µM (inactive) | 6.18 µM (inactive) | 14.6 µM (inactive) | 21 µM (inactive) | 6.87 µM (inactive) | 10 µM (inactive) | 11.3 µM (inactive) | 6.73 µM (inactive) | 21 µM (inactive) | 13.1 µM (inactive) | 9.38 µM (inactive) | 16.9 µM (inactive) |  | 10.8 µM (inactive)
10 | COc1ccc2c3c1OC1C(=O)C=CC4(CC2)N(C)CCC314 (stereo not drawn) | 13.9 µM (inactive) | 6.19 µM (inactive) | 19.6 µM (inactive) |  | 22.7 µM (inactive) | 19.3 µM (inactive) | 11.4 µM (inactive) | 19.4 µM (inactive) | 29.5 µM (inactive) | 17 µM (inactive) | 25.9 µM (inactive) | 19.3 µM (inactive) |  | 16.3 µM (inactive) | 36.4 µM (inactive) | 21.4 µM (inactive) | 27.3 µM (inactive) | 16.3 µM (inactive) | 35.1 µM (inactive)
11 | O=C(O)c1cccc(/C=C/c2ccccc2)c1 | > 100 µM (inactive) | > 100 µM (inactive) | > 100 µM (inactive) |  | > 100 µM (inactive) | > 100 µM (inactive) | > 100 µM (inactive) | > 100 µM (inactive) | > 100 µM (inactive) | > 100 µM (inactive) | > 100 µM (inactive) | > 100 µM (inactive) | > 100 µM (inactive) | > 100 µM (inactive) | > 100 µM (inactive) | > 100 µM (inactive) | > 100 µM (inactive) | > 100 µM (inactive) | 72.6 µM (inactive)
12 | CC(=O)O[C@H]1C[C@H]2[C@@H]([C@H](OC(C)=O)C[C@@H]3CC4(CC[C@@]32C)OOC2(CCCCC2)OO4)[C@@H]2CC[C@H]([C@H](C)CCC(=O)O)[C@@]12C | 13.3 µM (inactive) | 3.91 µM (inactive) | 1.95 µM (inactive) | 4.15 µM (inactive) | 1.98 µM (inactive) | 2.42 µM (inactive) | 3.48 µM (inactive) | 13.9 µM (inactive) | 10.7 µM (inactive) | 3.46 µM (inactive) | 13.5 µM (inactive) | 6.81 µM (inactive) | 7.85 µM (inactive) | 13.1 µM (inactive) | 13.7 µM (inactive) | 6.81 µM (inactive) | 12.4 µM (inactive) | 3.28 µM (inactive) | 16.4 µM (inactive)
13 | COC(=O)CCC(C)[C@H]1CCC2C3C(C[C@H](OC(C)=O)[C@@]21C)[C@@]1(C)CCC2(C[C@H]1C[C@H]3OC(C)=O)OOC1(CCCCCCC1)OO2 (stereo partly drawn) | > 100 µM (inactive) | 7.62 µM (inactive) | 1.36 µM (inactive) | 4.3 µM (inactive) | 7.55 µM (inactive) | 4.05 µM (inactive) | 3.65 µM (inactive) | 2.73 µM (inactive) | > 100 µM (inactive) | 1.67 µM (inactive) | > 100 µM (inactive) | 6.27 µM (inactive) | 18.6 µM (inactive) | > 100 µM (inactive) | > 100 µM (inactive) | 23.3 µM (inactive) | 6.53 µM (inactive) | 7.26 µM (inactive) | 9.89 µM (inactive)
14 | COc1cc(/C=C2\CC3C4CC[C@H]5C[C@@H](O)CC[C@]5(C)C4CC[C@]3(C)C2=O)cc(OC)c1OC (stereo partly drawn) | 12.1 µM (inactive) | 5.93 µM (inactive) | 12 µM (inactive) | 5.75 µM (inactive) | 26.5 µM (inactive) | 14.4 µM (inactive) | 12.6 µM (inactive) |  | 27 µM (inactive) | 4.17 µM (inactive) | 13.9 µM (inactive) | 24 µM (inactive) | 22.6 µM (inactive) | 14.9 µM (inactive) | 11.5 µM (inactive) | 15.2 µM (inactive) | 27.6 µM (inactive) | 4.08 µM (inactive) | 19.5 µM (inactive)
15 | CCCCCCCC/C=C(\Br)C(O)C(Br)Br (stereo not drawn) | 31 µM (inactive) | 18.9 µM (inactive) | 28.2 µM (inactive) |  | 20.9 µM (inactive) | 22.8 µM (inactive) | 19.9 µM (inactive) | 17.4 µM (inactive) | 19.3 µM (inactive) | 42.7 µM (inactive) | 19.3 µM (inactive) | 23.2 µM (inactive) |  | 24.8 µM (inactive) | 26.6 µM (inactive) | 17.3 µM (inactive) | 39.4 µM (inactive) | 19.4 µM (inactive) | 21.1 µM (inactive)
